In ChEMBL document CHEMBL5137120, “Modified ent-Abietane Diterpenoids from the Leaves of Suregada zanzibariensis” (J Nat Prod, 2022):

Tests used:
[1] = Cytotoxicity against African green monkey GMK-AH-1 cell assessed as cell growth inhibition at >=100 uM incubated for 3 days by CellTiter96 Aqueous one reagent based assay; assay type: toxicity; settings: chlorocebus aethiops, gmk-ah-1, 72 h, time 3 day
[2] = Cytotoxicity against human THP-1 cells assessed as cell growth inhibition incubated for 24 hrs by MTT assay; assay type: toxicity, cell-based

SMILES	Activity [1]	IC50 at 24 h [2]
C=C1[C@@H](C)CC(=O)[C@@]2(C)[C@@H]3C[C@H]4OC(=O)C(C)=C4[C@H]4O[C@]43CC[C@]12O	Non-Toxic	–
C=C1[C@@H](C)CC(=O)[C@@]2(C)[C@@H]3C[C@H]4OC(=O)C(C)=C4C=C3CC[C@]12O	Non-Toxic	–
CC(C)[C@H]1CC[C@@H]2[C@]1(C)CC[C@]1(C)[C@H]3CC=C4[C@@H](CC[C@H](O)C4(C)C)[C@]3(C)CC[C@@]21C	Non-Toxic	1780 nM
